Test results from the NIST ThermoML archive (doi:10.1016/j.jct.2010.09.005).
Where “and” joins values, the source holds several entries; their conditions need not be identical. Identical values can stand only once. ± gives the expanded uncertainty stated by the source.

Legend:
[1] = molar enthalpy of vaporization or sublimation; settings: 298.15 K, vacuum sublimation
[2] = Crystal, Calculated from knudsen effusion weight loss

Row | SMILES | molar enthalpy ([1]; Crystal) | molar enthalpy ([1]; Liquid) | vapor or sublimation pressure ([2]; 293.25 K) | vapor or sublimation pressure ([2]; 295.17 K) | vapor or sublimation pressure ([2]; 297.09 K) | vapor or sublimation pressure ([2]; 299.21 K) | vapor or sublimation pressure ([2]; 301.16 K) | vapor or sublimation pressure ([2]; 303.08 K) | vapor or sublimation pressure ([2]; 305.19 K) | vapor or sublimation pressure ([2]; 307.16 K) | vapor or sublimation pressure ([2]; 309.09 K)
1 | CC(=O)c1ccc(Cl)cc1Cl [2',4'-dichloroacetophenone] | 63.6 ± 2.8 kJ/mol | – | – | – | – | – | – | – | – | – | –
2 | CC(=O)c1cc(Cl)ccc1Cl [2',5'-dichloroacetophenone] | – | 66.3 ± 3 kJ/mol | – | – | – | – | – | – | – | – | –
3 | CC(=O)c1ccc(Cl)c(Cl)c1 [3',4'-dichloroacetophenone] | 90.8 ± 3.2 kJ/mol | – | 0.0001703 ± 8.5e-06 kPa and 0.0001647 ± 8.3e-06 kPa and 0.0001655 ± 8.3e-06 kPa | 0.0002238 ± 1.1e-05 kPa and 0.0002145 ± 1.1e-05 kPa and 0.000213 ± 1.1e-05 kPa | 0.0002738 ± 1.4e-05 kPa and 0.0002832 ± 1.4e-05 kPa and 0.0002774 ± 1.4e-05 kPa | 0.0003484 ± 1.7e-05 kPa and 0.0003522 ± 1.8e-05 kPa and 0.0003546 ± 1.8e-05 kPa | 0.0004547 ± 2.3e-05 kPa and 0.0004516 ± 2.3e-05 kPa and 0.0004492 ± 2.3e-05 kPa | 0.0005694 ± 2.9e-05 kPa and 0.0005819 ± 2.9e-05 kPa and 0.0005785 ± 2.9e-05 kPa | 0.0007368 ± 3.7e-05 kPa and 0.0007202 ± 3.6e-05 kPa and 0.0007224 ± 3.6e-05 kPa | 0.000944 ± 4.7e-05 kPa and 0.0009302 ± 4.7e-05 kPa and 0.0009113 ± 4.6e-05 kPa | 0.001174 ± 0.00012 kPa and 0.001186 ± 0.00012 kPa and 0.001176 ± 0.00012 kPa
